What was measured:
Hela cells [1] = assay: Labeling of Hela cells expressing protein tags versus Hela-WT cells, confocal microscopy; format: cell-based; details: probe 5 μM, 37° C., 2 h
Experimental: Take Hela cells as an example to detect the labeling effect of the compounds in mammalian cells. Hela cells and Hela-WT cells (Hela primitive cells without expressing protein tags), which can express protein tags stably, are planted in a glass bottom 96-well plate of 14 mm for 10 h. Add Probe 16, Probe 17 and Probe 18 into a culture medium respectively and dilute them to 5 μM. Hatch the cells in a carbon dioxide incubator at 37° C. for 2 h. Detect the fluorescence changes of labeled cells by using Leica TPS-8 confocal microscopy.

SNAP protein tag [2] = assay: Labeling of SNAP protein tag expressed in the liver of living mice; format: in vivo; details: 0.4 μM in 200 μL PBS intravenously, 6 h
Experimental: Firstly, introduce the plasmid pcdna3.1-SNAP (sample group) with SNAP protein expressing and the contrastive plasmid pcdna3.1-CAT (contrastive group) without SNAP protein expressing into mice. In this method, the plasmid is dissolved in a large volume of solution and rapidly injected into mice intravenously. The plasmid is absorbed by mouse liver, and then express the target protein. After 24 h of plasmid injection, inject the Probe 16 (0.4 μM) dissolved in 200 μL of PBS into mice intravenously to label SNAP protein tag. After 6 h, dissect the mice, and detect liver fluorescence differences by using Kodak multispectral vivo imaging system.

Hela cells [3] = assay: Labeling of protein tags located in different organelles of Hela cells without washing; format: cell-based; details: probe 0.2 μM, 2 h
Experimental: Plant Hela cells (5000 cells/well) in a glass bottom plate of 96-well for 14 h, and then use Lipo2000 kit to transfect protein tags to locate plasmids in different organelles. After 24 h of transfection, remove the original culture medium, wash the culture medium twice with phenol free red DMEM culture medium, and hatch the cells with phenol free red medium containing probe (0.2 μM) for 2 h, and detect the effect of cell labeling by using Leica TCS-8 confocal microscopy imaging.

[4] = Fluorescence emission spectra of probes in glycerol and methanol (viscosity response); format: physicochemical; details: maximum excitation wavelength of each probe; for Fluorescence ratio in glycerol methanol: 1×10^−5 M; for Emission wavelength: medium not given
Excerpt: Respectively dissolve Probe 1-32 and Reference Probes BG-CCVJ and BG-Gly-CCVJ in dimethyl sulfoxide so as to prepare a mother liquid with a concentration of 1×10^−2M; add the mother liquid to glycerol and methanol respectively and mix them well to prepare a solution with a concentration of 1×10^−5 M. Based on different probes, the fluorescence emission spectrum of each probe are detected under the same conditions with maximum excitation wavelength of each probe.
The probes are sensitive to the change of viscosity and have viscosity response.

SNAP protein tag [5] = assay: Fluorescence activation after mixing probe with corresponding protein tag (SNAP); format: biochemical; details: probe 5 μM, protein tag 10 μM, 37° C., 1 h
Experimental: (§1) Mix the probe with corresponding protein tag to obtain the mixed sample, wherein the final concentration of probe in the mixed sample is 5 μM, and the final concentration of protein tags is 10 μM; hatch the mixed sample at 37° C. for 1 h, and detect its fluorescence intensity change by using the fluorescence spectrophotometer.
(§2) According to the free probe quantum yield shown in Table 1, the fluorescence of the probes of and reference probes are extremely low before the reaction with the protein tag, and is close to the background fluorescence level of PBS buffer solution. […] However, according to the quantum yield of the binding protein tag, the fluorescence signal enhancement can be detected in the corresponding excitation emission channel after the probe reacts with the protein tag with hundreds to one thousand fold fluorescence activation times and very high brightness; the reference probes also can activate fluorescence, but the fluorescence quantum yield and brightness after activation are quite low.

Hela cells [6] = assay: Two-colour orthogonal labeling of CLIP-histone and mito-SNAP in the same Hela cell; format: cell-based; details: Probe 16 and Probe 9, 0.2 μM, 2 h, without washing
Experimental: Plant Hela cells (5000 cells/well) in a glass bottom plate of 96-well for 14 h; transfect pcdna3.1-CLIP-histone (CLIP protein labeled chromosome localization plasmid) and pcdna3.1-mito-SNAP (SNAP protein labeled […] localization plasmid) by using Lipo2000 kit (0.1 μg/well). After 24 h of transfection, remove the original culture medium, and wash the culture medium twice with phenol free red DMEM culture medium, and hatch the cells respectively with phenol free red medium containing Probe 16 and Probe 9 (0.2 μM) for 2 h, and detect the effect of cell labeling by using Leica TCS-8 confocal microscopy imaging.

SNAP-IAA17-H2B = assay: Probe fluorescence during IAA-induced protein degradation (AID system) in Hela cells; format: cell-based; details: probe 1 μM; 140 min after IAA added
Experimental: In order to verify that the fluorescence activation of the probe is related to the existence of protein, SNAP protein of mammalian cells is taken as an example, and AID degradation system is an example of detecting the fluorescence changes of probes combined with SNAP after protein degradation in Hela cells. Firstly, plant Hela cells (20000/cm^2) in a glass bottom cell culture medium of 20 mm for 14 h, and then transect the plasmids pcdna3.1-TIR1 and pcdna3.1-SNAP-IAA17-H2B by means of Lipofectmain2000 transfection reagent (Invertogen Co.). After the cells are transfected for 24 h, replace the cells labeled by the original cell culture medium with phenol red DMEM culture medium containing Probe 16 (1 μM), and hatch the cee sample in a carbon dioxide incubator at 37° C. for 1 h. After labeling, detect the fluorescence signal of the labeled cells by using Leica SP8 laser confocal microscopy imaging, and add indoleacetic acid (IAA) to induce the protein degradation of SNAP-IAA17-H2B, and detect the changes of cell fluorescence during protein degradation.

[7] = Fluorescence of free probe before reaction with the protein tag; format: physicochemical
Experimental: as §1, §2

Structure (SMILES)	Fluorescence signal in Hela-WT cells (without protein tags) (Hela cells [1])	Increase of fluorescence signal in cells expressing protein tags (Hela cells [1]) [times]	Liver fluorescence intensity of pcdna3.1-SNAP mice relative to the contrastive group (SNAP protein tag [2])	Liver fluorescence of mice injected with contrastive plasmid pcdna3.1-CAT (SNAP protein tag [2])	Display of subcellular organelle structures (Hela cells [3])	Fluorescence ratio in glycerol methanol [4]	Emission wavelength [4] [nm]	Fluorescence activation multiple (SNAP protein tag [5])	Quantum yield of binding protein tags (SNAP protein tag [5])	Display of mitochondria and chromosomes in the same cell (Hela cells [6])	Fluorescence signal of SNAP-IAA17-H2B protein after IAA addition (SNAP-IAA17-H2B)	Quantum yield of free probe [7]
CN(CCOC(=O)NCc1ccc(COc2nc(N)nc3[nH]cnc23)cc1)c1ccc2c(c1)C(C)(C)c1cc(/C=C(\C#N)C(=O)OC(C)(C)C)sc1-2 [Probe 16]	no corresponding fluorescence signal is detected	~700	more than 20 fold	very low	can clearly display a variety of subcellular organelle structures without washing	1421	645	842	0.71	clearly and simultaneously display the structure of mitochondria and chromosomes without washing	almost negligible	<0.001
CN(CCOC(=O)NCc1ccc(COc2nc(N)nc3[nH]cnc23)cc1)c1ccc2c(c1)C(C)(C)c1cc(/C=C(\C#N)c3nc4ccccc4s3)sc1-2 [Probe 18]	no corresponding fluorescence signal is detected	~700	–	–	can clearly display a variety of subcellular organelle structures without washing	1123	675	890	0.48	–	–	<0.001

— patent US12613246B2, “Fluorescent probe and protein labeling method” (SHANGHAI GLORY CAPITAL MANAGEMENT LTD., priority 2018, dated 2026)
